The text below walks through data of patent US20250263408A1 (Uniquest Pty Ltd, priority 2022, published 2025).

In experiment [1] the test system is Ba/F3-WT (wild type) cells. Kind of experiment: Ba/F3 Proliferation Assay, Ba/F3-WT (wild type) cells with mIL-3 (Resazurin). The format is cell-based. The note with it: Ba/F3-WT cells +mIL-3, 48-hour incubation.
For experiment [2], the target named is T1, Ba/F3-Syk cells (Homo sapiens, UniProt P43405).
T1 construct: fused on or other part: Possible but unprinted fusion partner: TEL (ETV6), the usual partner for Ba/F3 lines transformed by Syk; Nothing on a partner is printed
Kind of experiment: Ba/F3 Proliferation Assay, Ba/F3-Syk cells (Resazurin). The settings on record: 48-hour incubation. The experiment is classed as cell-based.

SMILES strings stand for the structures.

As for `FC1(F)CC1n1ccc(-c2cc(OC[C@@H]3CNCCO3)c3cccnc3c2)c1` (stereo partly drawn) [Compound 7.7, 7-[1-(2,2-difluorocyclopropyl)-1H-pyrrol-3-yl]-5-{[(2S)-morpholin-2-yl]methoxy}quinoline], the EC50 turned out to be 4330 nM in experiment [1] (Mus musculus, BaF3, 48 h) and 86.5 nM in experiment [2].
The like results for `CC1(C)CNC[C@@H](COc2cc(-c3ccn(C4CC4(F)F)c3)cc3ncccc23)O1` (stereo partly drawn) [Compound 7.8, 7-[1-(2,2-difluorocyclopropyl)-1H-pyrrol-3-yl]-5-{[(2S)-6,6-dimethylmorpholin-2-yl]methoxy}quinoline] were, in that order, 3270 nM and 19.3 nM.
Regarding `COCCn1ccc(-c2cc(OC[C@@H]3CNCCO3)c3cccnc3c2)c1` [Compound 7.9, 7-[1-(2-methoxyethyl)-1H-pyrrol-3-yl]-5-{[(2S)-morpholin-2-yl]methoxy}quinoline], the EC50 in experiment [1] (Mus musculus, BaF3, 48 h) was found to be 2440 nM; in experiment [2] it was 234 nM.
On the same counts, the results for `CC(C)n1ccc(-c2cc(OC[C@@H]3CNCC4(CC4)O3)c3cccnc3c2)c1` [Compound 7.13, 5-{[(5S)-4-oxa-7-azaspiro[2.5]octan-5-yl]methoxy}-7-[1-(propan-2-yl)-1H-pyrrol-3-yl]quinoline] are 4020 nM and 22.4 nM.
On the same counts, the results for `FC(F)Cn1cc(-c2cc(OC[C@@H]3CNCCCO3)c3cccnc3c2)cn1` [Compound 7.15, 7-[1-(2,2-difluoroethyl)-1H-pyrazol-4-yl]-5-{[(2S)-1,4-oxazepan-2-yl]methoxy}quinoline] are 2770 nM and 97.5 nM.
Regarding `c1cnc2cc(-c3ccn(C4COC4)c3)cc(OC[C@@H]3CNCC4(CC4)O3)c2c1` [Compound 7.16, 5-{[(5S)-4-oxa-7-azaspiro[2.5]octan-5-yl]methoxy}-7-[1-(oxetan-3-yl)-1H-pyrrol-3-yl]quinoline], the EC50 in experiment [1] (Mus musculus, BaF3, 48 h) is 1710 nM; in experiment [2] it was 19.8 nM.
On the same counts, the results for `CCn1ccc(-c2cc(OC[C@@H]3CNCC(C)(C)O3)c3cccnc3c2)c1` [Compound 7.17, 5-{[(2S)-6,6-dimethylmorpholin-2-yl]methoxy}-7-(1-ethyl-1H-pyrrol-3-yl)quinoline] are 1960 nM and 15.8 nM.
Turning to `CCn1ccc(-c2cc(O[C@H](C)[C@@H]3CNCCO3)c3cccnc3c2)c1` [Compound 7.18, 7-(1-ethyl-1H-pyrrol-3-yl)-5-[(1R)-1-[(2S)-morpholin-2-yl]ethoxy]quinoline], the EC50 in experiment [1] (Mus musculus, BaF3, 48 h) was 1750 nM; in experiment [2] it was 53.7 nM.
The like results for `CC(C)n1ccc(-c2cc(O[C@H](C)[C@@H]3CNCCO3)c3cccnc3c2)c1` [Compound 7.19, 5-[(1R)-1-[(2S)-morpholin-2-yl]ethoxy]-7-[1-(propan-2-yl)-1H-pyrrol-3-yl]quinoline] were, in that order, 1870 nM and 36.3 nM.
The like results for `CCn1ccc(-c2cc(OC[C@@H]3CNCCO3)c3cccnc3c2)c1` [Compound 7.20, 7-(1-ethyl-1H-pyrrol-3-yl)-5-{[(2S)-morpholin-2-yl]methoxy}quinoline] were, in that order, 1690 nM and 40 nM.
As to `COCCn1ccc(-c2cc(OC[C@@H]3CNCC4(CC4)O3)c3nccnc3c2)c1` [Compound 8.1, 7-[1-(2-methoxyethyl)-1H-pyrrol-3-yl]-5-{[(5S)-4-oxa-7-azaspiro[2.5]octan-5-yl]methoxy}quinoxaline], the EC50 in experiment [1] (Mus musculus, BaF3, 48 h) is 1850 nM; in experiment [2] it was 29.3 nM.
On the same counts, the results for `CC(C)n1ccc(-c2cc(OC[C@@H]3CNCC4(CC4)O3)c3nccnc3c2)c1` [Compound 8.2, 5-{[(5S)-4-oxa-7-azaspiro[2.5]octan-5-yl]methoxy}-7-[1-(propan-2-yl)-1H-pyrrol-3-yl]quinoxaline] are 614 nM and 22.1 nM.
Consider `COCCn1ccc(-c2cc(OC[C@@H]3CNCCO3)c3nccnc3c2)c1` [Compound 8.7], for which the EC50 in experiment [1] was found to be 621 nM; in experiment [2], 15.1 nM.
For `CCn1ccc(-c2cc(OC[C@@H]3CNCCCO3)c3nccnc3c2)c1` [Compound 8.9, 7-(1-ethyl-1H-pyrrol-3-yl)-5-{[(2S)-1,4-oxazepan-2-yl]methoxy}quinoxaline], the EC50 was found to be 1620 nM in experiment [1] (Mus musculus, BaF3, 48 h) and 20.5 nM in experiment [2].
On the same counts, the results for `CC(C)n1ccc(-c2cc(O[C@H](C)[C@@H]3CNCC(C)(C)O3)c3nccnc3c2)c1` [Compound 8.11, 5-[(1R)-1-[(2S)-6,6-dimethylmorpholin-2-yl]ethoxy]-7-[1-(propan-2-yl)-1H-pyrrol-3-yl]quinoxaline] are 625 nM and 6.32 nM.
On the same counts, the results for `CCn1ccc(-c2cc(O[C@H](C)[C@@H]3CNCC(C)(C)O3)c3nccnc3c2)c1` [Compound 8.12, 5-[(1R)-1-[(2S)-6,6-dimethylmorpholin-2-yl]ethoxy]-7-(1-ethyl-1H-pyrrol-3-yl)quinoxaline] are 537 nM and 7.8 nM.
Regarding `CC(C)n1ccc(-c2cc(O[C@H](C)[C@@H]3CNCCO3)c3nccnc3c2)c1` [Compound 8.13], the figures for the EC50 in experiment [1] and in experiment [2] were 371 nM and 7.3 nM, respectively.
`CCn1ccc(-c2cc(O[C@H](C)[C@@H]3CNCCO3)c3nccnc3c2)c1` [Compound 8.14, 7-(1-ethyl-1H-pyrrol-3-yl)-5-[(1R)-1-[(2S)-morpholin-2-yl]ethoxy]quinoxaline]: the EC50 worked out at 435 nM in experiment [1] (Mus musculus, BaF3, 48 h) and 8.3 nM in experiment [2].
On the same counts, the results for `C[C@@H](Oc1cc(-c2ccn(CC(F)F)c2)cc2nccnc12)[C@@H]1CNCCO1` [Compound 8.15, 7-[1-(2,2-difluoroethyl)-1H-pyrrol-3-yl]-5-[(1R)-1-[(2S)-morpholin-2-yl]ethoxy]quinoxaline] are 358 nM and 8.9 nM.
As for `CCn1ccc(-c2cc(OC[C@@H]3CNCC4(CCC4)O3)c3nccnc3c2)c1` [Compound 8.16, 7-(1-ethyl-1H-pyrrol-3-yl)-5-{[(6S)-5-oxa-8-azaspiro[3.5]nonan-6-yl]methoxy}quinoxaline], the EC50 was determined as 822 nM in experiment [1] (Mus musculus, BaF3, 48 h) and 9.4 nM in experiment [2].
On the same counts, the results for `COCCn1ccc(-c2cc(OC[C@@H]3CNCC4(CCC4)O3)c3nccnc3c2)c1` [Compound 8.18, 7-[1-(2-methoxyethyl)-1H-pyrrol-3-yl]-5-{[(6S)-5-oxa-8-azaspiro[3.5]nonan-6-yl]methoxy}quinoxaline] are 335 nM and 8.4 nM.
The like results for `FC(F)Cn1ccc(-c2cc(OC[C@@H]3CNCCCO3)c3nccnc3c2)c1` [Compound 8.20, 7-[1-(2,2-difluoroethyl)-1H-pyrrol-3-yl]-5-{[(2S)-1,4-oxazepan-2-yl]methoxy}quinoxaline] were, in that order, 1860 nM and 27.6 nM.
For `CCn1ccc(-c2cc(OC[C@@H]3CNCC(C)(C)O3)c3nccnc3c2)c1` [Compound 8.21, 5-{[(2S)-6,6-dimethylmorpholin-2-yl]methoxy}-7-(1-ethyl-1H-pyrrol-3-yl)quinoxaline], the EC50 is 951 nM in experiment [1] (Mus musculus, BaF3, 48 h) and 10 nM in experiment [2].
The like results for `CCn1ccc(-c2cc(OC[C@@H]3CNCCO3)c3nccnc3c2)c1` [Compound 8.22, 7-(1-ethyl-1H-pyrrol-3-yl)-5-{[(2S)-morpholin-2-yl]methoxy}quinoxaline] were, in that order, 655 nM and 12.6 nM.
On the same counts, the results for `CC(C)n1ccc(-c2cc(OC[C@@H]3CNC[C@@H](C)O3)c3nccnc3c2)c1` [Compound 8.23, 5-{[(2S,6R)-6-methylmorpholin-2-yl]methoxy}-7-[1-(propan-2-yl)-1H-pyrrol-3-yl]quinoxaline] are 421 nM and 2.7 nM.
